Results taken from article PMC10215804, “Exploring Alternative Pathways to Target Bacterial Type II Topoisomerases Using NBTI Antibacterials: Beyond Halogen-Bonding Interactions” (Antibiotics, 2023).
Like-named read-outs stand apart in the source and are kept apart here.

What was measured:
[1] = Metabolic activity assessment (cytotoxicity), CellTiter 96 Aqueous One; type: cell-based; settings: human, 72 h treatment, means of three independent measurements ± SD
Outline: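 HUVEC and HepG2 cells (passages 4–7) treated 72 h with compound (1 and 50 μM for screening) versus vehicle; metabolic activity by MTS-type CellTiter 96 AQueous One absorbance at 492 nm. Reported as % of vehicle control or IC50 (mean ± SD, three experiments) by non-linear regression.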

[2] = molecular target: T1, E. coli topoIV (Escherichia coli, UniProt P0AFI2); experiment: topoIV relaxation inhibition assay (high-throughput plate assay); type: biochemical
T1 construct: purchased Inspiralis (Norwich, UK)
T1 sequence (P20083 whole entry): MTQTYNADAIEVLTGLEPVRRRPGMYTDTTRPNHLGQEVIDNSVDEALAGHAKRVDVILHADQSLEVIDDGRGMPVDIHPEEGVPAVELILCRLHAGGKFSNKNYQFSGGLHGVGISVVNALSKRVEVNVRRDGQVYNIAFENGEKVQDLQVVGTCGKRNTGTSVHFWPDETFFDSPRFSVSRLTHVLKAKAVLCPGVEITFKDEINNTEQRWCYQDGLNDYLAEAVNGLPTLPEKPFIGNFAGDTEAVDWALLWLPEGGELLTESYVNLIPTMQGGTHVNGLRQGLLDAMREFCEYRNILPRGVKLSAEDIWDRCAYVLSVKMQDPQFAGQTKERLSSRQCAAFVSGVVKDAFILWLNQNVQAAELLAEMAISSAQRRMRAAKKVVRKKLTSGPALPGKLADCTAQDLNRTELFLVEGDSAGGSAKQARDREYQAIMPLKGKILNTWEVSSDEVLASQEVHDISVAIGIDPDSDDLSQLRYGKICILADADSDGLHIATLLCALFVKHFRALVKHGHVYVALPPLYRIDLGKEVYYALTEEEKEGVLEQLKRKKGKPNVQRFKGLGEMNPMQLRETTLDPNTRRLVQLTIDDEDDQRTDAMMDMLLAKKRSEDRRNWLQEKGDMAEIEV
T1 sequence (P0AFI2 whole entry): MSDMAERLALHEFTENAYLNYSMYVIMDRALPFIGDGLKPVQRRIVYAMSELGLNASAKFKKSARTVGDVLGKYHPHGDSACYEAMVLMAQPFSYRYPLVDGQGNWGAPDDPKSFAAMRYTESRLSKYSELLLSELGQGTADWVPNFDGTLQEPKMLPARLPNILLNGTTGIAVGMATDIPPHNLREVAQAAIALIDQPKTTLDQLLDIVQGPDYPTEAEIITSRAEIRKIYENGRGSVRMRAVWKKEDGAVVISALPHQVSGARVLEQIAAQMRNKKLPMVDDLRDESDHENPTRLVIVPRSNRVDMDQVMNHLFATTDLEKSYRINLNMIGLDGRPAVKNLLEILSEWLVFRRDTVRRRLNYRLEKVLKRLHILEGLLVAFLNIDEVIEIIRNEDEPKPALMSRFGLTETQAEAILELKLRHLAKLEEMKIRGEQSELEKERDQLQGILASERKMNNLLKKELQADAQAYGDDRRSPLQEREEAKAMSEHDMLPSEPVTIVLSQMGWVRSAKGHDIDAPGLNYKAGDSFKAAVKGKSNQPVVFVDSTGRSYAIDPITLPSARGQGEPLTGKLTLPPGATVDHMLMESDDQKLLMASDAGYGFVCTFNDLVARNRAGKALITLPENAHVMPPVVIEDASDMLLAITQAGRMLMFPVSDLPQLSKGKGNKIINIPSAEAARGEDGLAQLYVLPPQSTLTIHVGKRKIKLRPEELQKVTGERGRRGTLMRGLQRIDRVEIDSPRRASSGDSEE
Outline: (§1)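 Plate-based gyrase supercoiling and topoIV relaxation assays were run with S. aureus and E. coli enzymes, with pre-screening at 100 μM inhibitor. IC50 values came from a four-parameter symmetric nonlinear fit of log[inhibitor] versus reaction slope. Each is the mean of two independent repetitions.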

[3] = tested on: P. aeruginosa RDK 184; experiment: MIC, broth microdilution; type: cell-based; settings: Pseudomonas aeruginosa
Outline: (§2)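 Read-out was visual: the lowest compound concentration that prevented bacterial growth defined the MIC. Testing followed CLSI and EUCAST microdilution recommendations, using cation-adjusted Mueller–Hinton broth with TES and an end inoculum of 10^5 CFU/mL.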

[4] = tested on: K. pneumoniae; experiment: MIC, broth microdilution; type: cell-based; settings: Klebsiella pneumoniae
Outline: as §2

[5] = tested on: E. coli N43 (CGSC# 5583); experiment: MIC, broth microdilution; type: cell-based; settings: Escherichia coli
Outline: as §2

[6] = tested on: A. baumannii; experiment: MIC, broth microdilution; type: cell-based; settings: Acinetobacter baumannii
Outline: as §2

[7] = tested on: E. coli D22; experiment: MIC, broth microdilution; type: cell-based; settings: Escherichia coli, D22
Outline: (§3)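 CLSI/EUCAST microdilution; CAMHB + TES; final inoculum 10^5 CFU/mL from 0.5 McFarland suspension; compounds dissolved in DMSO; MIC = lowest concentration with no visible growth; tetracycline control on every plate.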

[8] = tested on: E. faecalis RDK 057; experiment: MIC, broth microdilution; type: cell-based; settings: Enterococcus faecalis, RDK057
Outline: as §3

[9] = tested on: E. coli (ATCC 25922); experiment: MIC, broth microdilution; type: cell-based; settings: Escherichia coli
Outline: as §2

[10] = tested on: S. aureus (ATCC 29213); experiment: MIC, broth microdilution; type: cell-based; settings: Staphylococcus aureus, ATCC29213
Outline: as §3

[11] = tested on: E. coli ESBL QA-11.3; experiment: MIC, broth microdilution; type: cell-based; settings: Escherichia coli
Outline: as §2

[12] = tested on: VRE; experiment: MIC, broth microdilution; type: cell-based; settings: Enterococcus
Outline: as §2

[13] = tested on: MRSA(QA-12.1); experiment: MIC, broth microdilution; type: cell-based, S. aureus; settings: Staphylococcus aureus
Outline: as §2

[14] = tested on: MRSA (QA-11.2); experiment: MIC, broth microdilution; type: cell-based, S. aureus; settings: Staphylococcus aureus
Outline: as §2

[15] = tested on: MRSA (QA-11.7); experiment: MIC, broth microdilution; type: cell-based, S. aureus; settings: Staphylococcus aureus
Outline: as §2

[16] = molecular target: T2, S. aureus DNA gyrase (Staphylococcus aureus, UniProt P20831); experiment: biochemical; settings: supercoiling inhibition; mean of two independent measurements ± SD
T2 construct: purchased Inspiralis (Norwich, UK)
T2 sequence (P20831 whole entry): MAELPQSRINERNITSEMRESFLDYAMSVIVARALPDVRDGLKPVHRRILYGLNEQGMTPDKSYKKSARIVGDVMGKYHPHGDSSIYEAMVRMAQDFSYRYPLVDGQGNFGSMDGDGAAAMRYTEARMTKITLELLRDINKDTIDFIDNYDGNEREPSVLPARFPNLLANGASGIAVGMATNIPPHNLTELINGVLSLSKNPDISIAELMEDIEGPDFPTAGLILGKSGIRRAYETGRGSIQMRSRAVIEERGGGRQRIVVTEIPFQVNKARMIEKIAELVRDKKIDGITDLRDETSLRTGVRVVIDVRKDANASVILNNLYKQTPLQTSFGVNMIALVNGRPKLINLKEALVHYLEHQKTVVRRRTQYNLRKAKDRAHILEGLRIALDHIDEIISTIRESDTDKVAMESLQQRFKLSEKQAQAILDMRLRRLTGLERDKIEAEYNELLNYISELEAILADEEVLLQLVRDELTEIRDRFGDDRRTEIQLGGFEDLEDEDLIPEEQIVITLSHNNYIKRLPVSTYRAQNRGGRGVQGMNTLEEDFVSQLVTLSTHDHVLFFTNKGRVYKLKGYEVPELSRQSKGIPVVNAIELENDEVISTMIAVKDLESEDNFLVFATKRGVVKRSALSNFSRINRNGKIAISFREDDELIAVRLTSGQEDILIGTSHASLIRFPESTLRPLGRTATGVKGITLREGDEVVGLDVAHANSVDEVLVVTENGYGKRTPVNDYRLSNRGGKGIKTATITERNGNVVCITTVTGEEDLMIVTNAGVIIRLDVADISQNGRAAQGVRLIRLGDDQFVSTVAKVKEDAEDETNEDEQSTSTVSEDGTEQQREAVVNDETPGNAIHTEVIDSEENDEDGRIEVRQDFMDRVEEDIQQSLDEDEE
T2 sequence (P0A0K8 whole entry partner): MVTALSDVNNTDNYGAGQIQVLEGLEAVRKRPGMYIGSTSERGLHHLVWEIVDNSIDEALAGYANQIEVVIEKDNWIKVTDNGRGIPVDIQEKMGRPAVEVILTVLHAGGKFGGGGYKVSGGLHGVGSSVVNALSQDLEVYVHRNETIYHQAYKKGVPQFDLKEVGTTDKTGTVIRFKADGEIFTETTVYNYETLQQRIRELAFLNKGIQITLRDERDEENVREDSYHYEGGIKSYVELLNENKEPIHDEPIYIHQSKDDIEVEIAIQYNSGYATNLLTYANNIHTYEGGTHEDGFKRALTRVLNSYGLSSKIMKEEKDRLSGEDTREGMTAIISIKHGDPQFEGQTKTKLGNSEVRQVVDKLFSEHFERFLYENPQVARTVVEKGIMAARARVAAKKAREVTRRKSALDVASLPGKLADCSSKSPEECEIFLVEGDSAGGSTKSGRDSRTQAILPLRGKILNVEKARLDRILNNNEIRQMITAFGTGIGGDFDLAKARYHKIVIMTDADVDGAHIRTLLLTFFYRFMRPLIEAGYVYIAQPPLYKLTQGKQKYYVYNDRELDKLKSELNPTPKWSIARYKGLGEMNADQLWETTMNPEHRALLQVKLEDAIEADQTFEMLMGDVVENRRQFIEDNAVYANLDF
Outline: as §1

[17] = molecular target: T3, S. aureus topoIV (Staphylococcus aureus, UniProt P0C1U9); experiment: biochemical; settings: relaxation inhibition; mean of two independent measurements ± SD
T3 construct: purchased Inspiralis (Norwich, UK)
T3 sequence (P0C1U9 whole entry): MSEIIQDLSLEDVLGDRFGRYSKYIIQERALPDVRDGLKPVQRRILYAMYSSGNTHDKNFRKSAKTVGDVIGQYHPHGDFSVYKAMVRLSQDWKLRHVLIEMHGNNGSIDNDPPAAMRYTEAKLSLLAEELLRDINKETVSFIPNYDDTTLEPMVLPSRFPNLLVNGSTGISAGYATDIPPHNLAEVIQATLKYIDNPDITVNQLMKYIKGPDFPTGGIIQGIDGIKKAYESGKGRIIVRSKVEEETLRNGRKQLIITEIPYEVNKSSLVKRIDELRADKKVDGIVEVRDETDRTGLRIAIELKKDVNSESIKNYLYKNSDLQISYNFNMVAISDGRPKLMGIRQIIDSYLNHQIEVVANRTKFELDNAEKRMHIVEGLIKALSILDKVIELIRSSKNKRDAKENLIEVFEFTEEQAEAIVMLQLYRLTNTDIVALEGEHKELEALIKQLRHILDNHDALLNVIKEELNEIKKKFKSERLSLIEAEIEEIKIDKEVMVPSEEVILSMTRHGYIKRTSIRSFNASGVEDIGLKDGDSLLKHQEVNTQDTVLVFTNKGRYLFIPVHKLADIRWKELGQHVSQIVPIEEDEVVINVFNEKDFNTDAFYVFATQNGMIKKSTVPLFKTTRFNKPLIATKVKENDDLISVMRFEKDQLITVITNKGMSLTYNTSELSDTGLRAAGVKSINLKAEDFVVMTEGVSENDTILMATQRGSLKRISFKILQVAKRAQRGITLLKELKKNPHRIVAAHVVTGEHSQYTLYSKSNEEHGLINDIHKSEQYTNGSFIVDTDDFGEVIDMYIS
T3 sequence (P0C1S7 whole entry partner): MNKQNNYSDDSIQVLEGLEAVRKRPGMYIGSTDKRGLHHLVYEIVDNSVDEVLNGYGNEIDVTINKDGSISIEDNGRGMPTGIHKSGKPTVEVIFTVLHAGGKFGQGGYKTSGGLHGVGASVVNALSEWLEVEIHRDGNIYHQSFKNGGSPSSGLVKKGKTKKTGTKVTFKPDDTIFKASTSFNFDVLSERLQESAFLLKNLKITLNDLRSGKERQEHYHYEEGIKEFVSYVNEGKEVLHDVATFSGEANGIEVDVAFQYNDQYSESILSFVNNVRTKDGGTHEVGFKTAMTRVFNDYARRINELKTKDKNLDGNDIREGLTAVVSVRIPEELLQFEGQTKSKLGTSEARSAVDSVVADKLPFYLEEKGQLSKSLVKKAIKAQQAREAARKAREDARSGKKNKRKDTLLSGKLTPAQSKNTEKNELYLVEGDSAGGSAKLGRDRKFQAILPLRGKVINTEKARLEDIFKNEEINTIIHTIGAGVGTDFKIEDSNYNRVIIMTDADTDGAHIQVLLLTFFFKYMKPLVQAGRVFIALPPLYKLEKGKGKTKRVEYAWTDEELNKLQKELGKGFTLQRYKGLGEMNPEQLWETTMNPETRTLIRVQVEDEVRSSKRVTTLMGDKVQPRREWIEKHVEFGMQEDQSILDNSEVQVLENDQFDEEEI
Outline: as §1

Structure (SMILES): COc1ccc2nccc(OCC3CCC(NCc4ccc(C)cc4)CC3)c2n1 (stereo not shown) [Compound 6]
- IC50 at 72 h ([1]; HUVEC cells (ATCC CRL-1730)): 36.6 ± 7.91 µM
- IC50 at 72 h ([1]; HepG2 cells (ATCC HB-8065)): 22.5 ± 2.7 µM
- IC50 [2]: 2.89 ± 0.88 µM
- MIC ([3]; RDK184, 20 h, Table S3, read-out: MIC (μM) P. aeruginosa RDK 184): > 328 µM
- MIC ([3]; RDK184, read-out: MIC P. aeruginosa RDK 184): > 128 µg/mL
- MIC ([4]; 20 h, Table S3, read-out: MIC (μM) K. pneumoniae): > 328 µM
- MIC ([4]; read-out: MIC K. pneumoniae): > 128 µg/mL
- MIC ([5]; read-out: MIC (μM) E. coli N43): 10.2 µM
- MIC ([5]; read-out: MIC E. coli N43 (CGSC# 5583)): 4 µg/mL
- MIC ([6]; Table S3, read-out: MIC (μM) A. baumannii): 164 µM
- MIC ([6]; read-out: MIC A. baumannii): 64 µg/mL
- MIC ([7]; Table S3, lpxC mutation, read-out: MIC (μM) E. coli D22): 81.9 µM
- MIC ([7]; lpxC mutation that increases membrane permeability, read-out: MIC E. coli D22): 32 µg/mL
- MIC ([8]; Table S3, read-out: MIC (μM) E. faecalis DRK 057): 20.5 µM
- MIC ([8]; read-out: MIC E. faecalis RDK 057): 8 µg/mL
- MIC ([9]; ATCC25922, 20 h, Table S3, read-out: MIC (μM) E. coli (ATCC 25922)): > 328 µM
- MIC ([9]; ATCC25922, read-out: MIC E. coli (ATCC 25922)): > 128 µg/mL
- MIC ([10]; Table S3, read-out: MIC (μM) S. aureus (ATCC 29213)): 2.56 µM
- MIC ([10]; read-out: MIC S. aureus (ATCC 29213)): 1 µg/mL
- MIC ([11]; ESBLQA11.3, 20 h, Table S3, read-out: MIC (μM) E. coli ESBL QA:11.3): > 328 µM
- MIC ([11]; ESBLQA11.3, read-out: MIC E. coli ESBL QA-11.3): > 128 µg/mL
- MIC ([12]; Table S3, read-out: MIC (μM) VRE): 5.12 µM
- MIC ([12]; read-out: MIC VRE): 2 µg/mL
- MIC ([13]; Table S3, read-out: MIC (μM) MRSA(QA-12.1)): 5.12 µM
- MIC ([13]; strain resistant to cefoxitin, gentamicin, kanamycin, rifampicin, streptomycin, sulfamethoxazole, tetracycline, read-out: MIC MRSA(QA-12.1)): 2 µg/mL
- MIC ([14]; Table S3, read-out: MIC (μM) MRSA (QA-11.2)): 1.28 µM
- MIC ([14]; read-out: MIC MRSA (QA-11.2)): 0.5 µg/mL
- MIC ([15]; Table S3, read-out: MIC (μM) MRSA (QA-11.7)): 2.56 µM
- MIC ([15]; strain resistant to cefoxitin, ciprofloxacin, clindamycin, erythromycin, tetracycline, thiamulin, trimethoprim, read-out: MIC MRSA (QA-11.7)): 1 µg/mL
- IC50 [16]: 0.403 ± 0.02 µM
- IC50 [17]: > 100 µM
